Results as given in patent US10160705B2, “Class of HDAC inhibitors expands the renal progenitor cells population and improves the rate of recovery from acute kidney injury” (University of Pittsburgh—Of the Commonwealth System of …, priority 2011, dated 2018).
Like-named read-outs stand apart in the source and are kept apart here.

Assays:
zebrafish embryos = experiment: Phenotypic screen for edema and survival in zebrafish larvae at 72 hpf; settings: for Dead / Edemic 1 (E1) / Edemic 2 (E2) / Edemic 3 (E3) / Wild-type (WT): number of larvae (of 36), 3 μM from 2 hpf, scored at 72 hpf
Description: The screen was performed in zebrafish embryos using the National Cancer Institute's Developmental Therapeutics Program (NCI/DTP) Diversity Set I. This library contains 1990 compounds selected by pharmacophore modeling to represent the more than 140,000 small molecules maintained in the NCI/DTP Open Repository. Compounds from the NCI/DTP Diversity Set I were diluted to 10 μM in E3 embryo medium (5 mM NaCl, 0.33 mM CaCl2, 0.33 mM MgSO4, and 0.17 mM KCl) in a final DMSO concentration of 0.5% and arrayed in 96-well plates. Beginning at approximately 2 hpf, embryos were transferred to each well in groups of five using a glass pipette. The plates were incubated at 28.5° C. for 70 hours. Individual wells were then scored for a dominant phenotype, representative of at least four of the five embryos. The primary objective was to identify compounds that caused edema in treated embryos at 72 hpf. Small molecules generating edema were retested once for verification, before obtaining additional compound from the NCI/DTP Open Repository.
PTBA was synthesized as described below. Hydroxyurea and aphidicolin were obtained from Sigma-Aldrich. Groups of 20 to 30 chorionated 2 hpf embryos were arrayed in individual wells of 12-well plates. E3 medium was removed with a glass pipette and replaced with 1.5 ml treatment solutions containing 0.5% DMSO in E3 with or without compound at the reported concentrations. Treatments for all studies were initiated at 2 hpf, except for the temporal studies (FIG. 6) and the HUA studies (FIG. 11). HUA studies were performed as described previously (Zhang, L., et al. Cell cycle progression is required for zebrafish somite morphogenesis but not segmentation clock function. Development 135, 2065-2070, (2008)), with the following modifications. HUA in 0.5% DMSO was added at early gastrulation (5 hpf) and PTBA was subsequently added at late gastrulation (8 hpf) to allow for penetration of the proliferation inhibitors. All embryos were incubated at 28.5° C. until the required developmental stage.
Following 70 hours of treatment (as described above), edemic phenotypes in 72 hpf larvae were scored using a phenotype-based classification system. Wild type: no visible edema or developmental delay. […] Significant effects (p<0.05) on survival were determined by two-tailed Fisher's exact test in comparison with the 0 μM PTBA treatment group.
PTBA and methyl-4-(phenylthio)butanoate were synthesized as described above. 4-(Naphthalen-2-ylthio)butanoic acid (NSC2733) and 3-(phenylthio)benzoic acid (NSC113994), were obtained from the NCI/DTP Open Repository. APHA compound 8, Apicidin, butanoic acid, PBA, 4-phenoxybutanoic acid, 5-phenylpentanoic acid, Scriptaid, TSA, and valproic acid were obtained from Sigma-Aldrich. MS-275 and SAHA were obtained from Cayman Chemical Co. 4-(phenylsulfonyl)butanoic acid was obtained from Matrix Scientific. Tubacin was a gift of Dr. Ralph Mazitschek of the Broad Institute (Cambridge, Mass.). The remaining PTBA analogs were synthesized. Three independent groups of 12 chorionated 2 hpf embryos were arrayed in individual wells of 24-well plates. E3 medium was removed with a glass pipette and replaced with 800 μl treatment solutions containing 0.5% DMSO in E3 with or without compound at the reported concentrations.
Phenotypic screening of PTBA analogs was performed identically to the concentration-response experiments detailed above. Embryos were treated with each PTBA analog from 2 to 72 hpf as described above.

kidney field = experiment: In situ hybridization for kidney markers (pax2a, pax8, cdh17, wt1a, slc4a4, slcl2a1); format: in vivo, zebrafish; settings: in situ hybridization, data not shown
Description: PTBA was synthesized as described below. Hydroxyurea and aphidicolin were obtained from Sigma-Aldrich.
In situ hybridization and immunocytochemistry: In situ hybridization was performed as previously described with some modifications.142 Hybridization temperature was 65° C. Embryos were blocked in 2% blocking reagent (Roche) with 5% sheep serum in MAB (100 mM maleic acid and 150 mM NaCl [pH 7.5]). Whole-mount immunocytochemistry with 1:25 mouse anti-α6F antibody (Developmental Studies Hybridoma Bank) and 1:100 Cy3 secondary antibody (Jackson ImmunoResearch) was performed as described previously.108 Embryos were embedded in JB-4 for sectioning per the manufacturer's instructions (Polysciences), sectioned at 5 μm, and mounted with Cytoseal 60 (Richard-Allan Scientific).

renal progenitor cells = experiment: In situ hybridization for lhx1a expression in 10-somite embryos (renal progenitor cell expansion); format: in vivo; settings: for Lhx1a expansion caused by analog treatment, 200 nM: 200 nM from 2 hpf; for Lhx1a expansion caused by analog treatment, 400 nM: 400 nM from 2 hpf; for responders at 1.5 µM / responders at 0.4 µM / responders at 0.8 µM / responders at 3 µM / responders at 0.2 µM / EC50: Danio rerio; for EC50: first pass EC50 from percent expansion (Excel trendline), average where several experiments; on Lhx1a expansion caused by analog treatment, 200 nM: key: effective (+); partially effective (+/−); ineffective (−); Analogs that killed all embryos at a given concentration before reaching 10 somites are listed as XX; on Lhx1a expansion caused by analog treatment, 3 μM: key: effective (+); partially effective (+/−); ineffective (−); Analogs that killed all embryos at a given concentration before reaching 10 somites are listed as XX; on Lhx1a expansion caused by analog treatment, 400 nM: key: effective (+); partially effective (+/−); ineffective (−); Analogs that killed all embryos at a given concentration before reaching 10 somites are listed as XX; on Lhx1a expansion caused by analog treatment, 800 nM: key: effective (+); partially effective (+/−); ineffective (−); Analogs that killed all embryos at a given concentration before reaching 10 somites are listed as XX
Method in brief: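 Zebrafish embryos treated with compound, then colorimetric whole-mount in situ hybridization (65° C) for lhx1a mRNA at 10 somites. Embryos with expanded kidney field counted manually as percent of total. EC50 taken as 50% point of percent-expansion trendline; compounds also classed effective, partial or ineffective versus PTBA at matched concentration.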

[1] = 800 nM from 2 hpf, 10-somite embryos
[2] = 1.5 μM from 2 hpf, 10-somite embryos
[3] = 3 μM from 2 hpf, 10-somite embryos
[4] = 1.5 μM from 2 hpf, 10-somite embryos, read-out: lhx1a expansion, percent of treated embryos
[5] = percent of embryos with expanded kidney field, 1.5 μM, read-out: Expansion of Cells (including repeats* and recounts**) 1.5 μM
[6] = percent of embryos with expanded kidney field, 3 μM, read-out: Expansion of Cells (including repeats* and recounts**) 3 μM
[7] = percent of embryos with expanded kidney field, 3 μM
[8] = read-out: lhx1a expansion, percent of treated embryos, 400 nM from 2 hpf, 10-somite embryos
[9] = read-out: lhx1a expansion, percent of treated embryos, 800 nM from 2 hpf, 10-somite embryos
[10] = 3 μM from 2 hpf, 10-somite embryos, read-out: lhx1a expansion, percent of treated embryos

SMILES	Dead (zebrafish embryos)	Edemic 1 (E1) (zebrafish embryos)	Edemic 2 (E2) (zebrafish embryos)	Edemic 3 (E3) (zebrafish embryos)	Wild-type (WT) (zebrafish embryos)	Lhx1a expansion caused by analog treatment, 800 nM (renal progenitor cells; [1])	Lhx1a expansion caused by analog treatment, 1.5 μM (renal progenitor cells; [2])	Lhx1a expansion caused by analog treatment, 3 μM (renal progenitor cells; [3])	responders at 1.5 µM (renal progenitor cells; [4]) [%]	further results
N=C(N)SCc1ccc(Cl)cc1Cl.O=[N+]([O-])c1c(O)c(Cl)cc(Cl)c1Cl [NSC35400]										phenotype in initial chemical screen (zebrafish embryos; 10 μM, larvae at 72 hpf): pericardial edema; size of the kidney field (kidney field): did not affect the size of the kidney field
Cc1ccc(SCCCC(=O)NO)cc1 [UPHD-00028, N-hydroxy-4-[(4-methyl-phenyl)sulfanyl]butanamide]	22	0	0	14	0	+	+	+	97	Lhx1a expansion caused by analog treatment, 200 nM (renal progenitor cells; 10-somite embryos): −; Lhx1a expansion caused by analog treatment, 400 nM (renal progenitor cells; 10-somite embryos): −; responders at 0.4 µM (renal progenitor cells; percent of embryos with expanded kidney field, 400 nM, read-out: Expansion of Cells (including repeats* and recounts**) 400 nM): 9%; responders at 0.8 µM (renal progenitor cells; percent of embryos with expanded kidney field, 800 nM, read-out: Expansion of Cells (including repeats* and recounts**) 800 nM): 61%; responders at 1.5 µM (renal progenitor cells; [5]): 97%; responders at 3 µM (renal progenitor cells; [6]): 100%; Expansion of Cells (including repeats* and recounts**) 3 μM (renal progenitor cells; [7]): 100%
O=C(CCCSc1ccc(F)cc1)NO [UPHD-00029, 4-[(4-fluoro-phenyl)sulfanyl]-N-hydroxybutanamide]	28	0	0	8	0	+	+	+	100	Lhx1a expansion caused by analog treatment, 200 nM (renal progenitor cells; 10-somite embryos): −; Lhx1a expansion caused by analog treatment, 400 nM (renal progenitor cells; 10-somite embryos): +/−; responders at 0.2 µM (renal progenitor cells; percent of embryos with expanded kidney field, 200 nM, read-out: Expansion of Cells (including repeats* and recounts**) 200 nM): 6%; responders at 1.5 µM (renal progenitor cells; [5]): 100%; responders at 3 µM (renal progenitor cells; [6]): 100%; responders at 0.4 µM (renal progenitor cells; [8]): 35%; responders at 0.8 µM (renal progenitor cells; [9]): 60%; EC50 (renal progenitor cells): 1.31 µM
COC(=O)CCCSc1ccc(F)cc1 [UPHD-00030, methyl 4-[(4-fluoro-phenyl)sulfanyl]butanoate]	36	0	0	0	0	+	+		100	Lhx1a expansion caused by analog treatment, 200 nM (renal progenitor cells; 10-somite embryos): +/−; Lhx1a expansion caused by analog treatment, 400 nM (renal progenitor cells; 10-somite embryos): +/−; lhx1a expansion, percent of treated embryos (renal progenitor cells; [1]): 64%; lethality before the 10-somite stage (renal progenitor cells; 3 μM): killed all treated embryos; responders at 1.5 µM (renal progenitor cells; [5]): 100%; responders at 0.2 µM (renal progenitor cells; read-out: lhx1a expansion, percent of treated embryos, 200 nM from 2 hpf, 10-somite embryos): 22%; responders at 0.4 µM (renal progenitor cells; [8]): 26%; responders at 0.8 µM (renal progenitor cells; [9]): 64%; EC50 (renal progenitor cells): 0.485 µM; Expansion of Cells (including repeats* and recounts**) 3 μM (renal progenitor cells; [7]): All dead
CCC(C)OC(=O)CCCSc1ccccc1 (stereo not shown) [VNK-I-154]	1	19	12	2	2	+/−	+	+	89	
COc1ccc(SCCCC(=O)NO)cc1 [VNK-I-289, 4-[(4-methoxy-phenyl)sulfanyl]-N-hydroxybutanamide]	0	20	0	0	16			+/−		responders at 3 µM (renal progenitor cells; [10]): 31%
COC(=O)CCCSc1ccc(Br)cc1 [VNK-I-290]	0	27	1	0	8			+/−		responders at 3 µM (renal progenitor cells; [10]): 74%
O=C(CCCSc1ccc(Br)cc1)NO [VNK-I-292, 4-[(4-bromo-phenyl)sulfanyl]-N-hydroxybutanamide]	0	23	12	0	1		+/−	+	47	
O=C(O)CCCNc1ccccc1 [VNK-I-300, 4-(phenylamino)butanoic acid]	0	1	0	0	35			−		
CCC(=O)CCCCC[C@@H]1NC(=O)[C@H]2CCCCN2C(=O)[C@H]([C@@H](C)CC)NC(=O)[C@H](Cc2cn(OC)c3ccccc23)NC1=O [apicidin, reference compound]	36	0	0	0	0	XX^1				Lhx1a expansion caused by analog treatment, 200 nM (renal progenitor cells; 10-somite embryos): −; Lhx1a expansion caused by analog treatment, 400 nM (renal progenitor cells; 10-somite embryos): +/−; treated embryos killed (renal progenitor cells; 800 nM): 69%; embryos surviving treatment (renal progenitor cells; 800 nM, n=36): 31%; lethality before the 10-somite stage (renal progenitor cells; 1.5 μM): lethal; lethality before the 10-somite stage (renal progenitor cells; 3 μM): killed all treated embryos; responders at 0.4 µM (renal progenitor cells; [8]): 22%
CCCC(=O)O [butanoic acid, reference compound]	1	0	0	0	35			−		
CC(C)(C)OC(=O)CCCSc1ccccc1 [tert-butyl 4-(phenylthio)butanoate]	0	3	0	0	33			+/−		responders at 3 µM (renal progenitor cells; [10]): 25%
O=C(CCCCCCC(=O)Nc1ccc([C@H]2O[C@@H](CSc3nc(-c4ccccc4)c(-c4ccccc4)o3)C[C@@H](c3ccc(CO)cc3)O2)cc1)NO [tubacin, reference compound]	0	0	0	0	36			−		effect on zebrafish embryos in the phenotypic screen (zebrafish embryos; 3 μM): appeared wild-type
CCCC(CCC)C(=O)O [valproic acid, reference compound]	0	11	0	0	25			+/−		responders at 3 µM (renal progenitor cells; [10]): 20%
